Measured values: patent US20110218244A1, “CREATINE ß-ALANINATE: A NOVEL SALT FOR INCREASING […] PERFORMANCE” (priority 2009, published 2011)
Where two headings read alike, the source gives them in different places.

Experiments:
individuals = details: cited from earlier work
[1] = system: intramuscular carnosine content; details: after 10 week supplementation; cited from earlier work

NCCC(=O)N[C@@H](Cc1cnc[nH]1)C(=O)O [carnosine, β-alanyl-L-histidine]
paraesthesia symptoms (individuals; greater quantities, ingested as dipeptides in meat): do not cause the same symptoms

NCCC(=O)O [β-alanine, 3-Aminopropanoic acid]
amount above which ingestion causes paraesthesia (individuals; in solution or as powder in gelatin capsules): above 10 mg per kg body weight
time at which paraesthesia begins after oral administration (individuals; oral): about 20 minutes
increase in intramuscular carnosine content, average [1]: 80%

creatine β-alaninate
more β-alanine administrable before eliciting symptoms of paraesthesia, compared with β-alanine alone (human subjects; administered as creatine β-alaninate): roughly 100%
single dose administered before the onset of parasthesia was noted (human subjects; oral, gelatin capsules, human subjects): up to 55.00 mg/kg
equivalent β-alanine dose before the onset of parasthesia (human subjects; salt mass consists of about 40.45% β-alanine): about 22.25 mg/kg

anserine
paraesthesia symptoms (individuals; in vivo): do not cause the same symptoms
